Assay results taken from article PMC11693670 (Frontiers in Fungal Biology, 2024).
Ends that are not written are not given here.

What was measured:
C. neoformans = test: Fungicidal/fungistatic tests; format: cell-based, Cryptococcus neoformans; set-up: key: Presence (+); absence (–); conditions: 5 µL plated on YPD agar, 30°C, visual inspection, six replicates
Description: Fungicidal/fungistatic tests were conducted with the four especially effective syn-enterocin peptides. C. neoformans was grown at 30°C in YPD overnight to an OD between 0.5 and 1.2 at 600 nm, then the C. neoformans culture was diluted to 10^5 and 10^3 fungal cells per well on a 96-well plate. Each well was treated with peptide at 16 µM before 5 µL per well was transferred onto YPD agar plates. Dilutions to reach desired cell counts were done in YPD. Six replicates of each peptide/dilution combination were plated. Plates were incubated at 30°C for 72 hours. Fungal growth was determined by visual inspection, with presence or absence of fungal growth being recorded (individual colonies were absent or overgrown and thus uncountable).

C. neoformans (KN99α) = conditions: 96 h
Description: C. neoformans and C. auris plates were incubated at 37°C and 5% CO2 for 96 hours after introduction of peptide and read at OD 600nm every 24 hours. […] MICs were determined for suspected positive hits against C. neoformans and C. albicans grown under the conditions previously described with approximately 500 fungal cells per well. […] C. neoformans plates were incubated at 37°C and 5% CO2 for 96 hours after introduction of peptide and read at OD 600nm every 24 hours. […] MICs were determined by approximately 50% inhibition of fungal growth, meaning that fungal growth as measured by OD was reduced 50% by peptide treatment relative to vehicle control.
Percent inhibition was calculated as the reduction
in OD at 600nm following peptide treatment relative to vehicle control. The average of six
replicates was used for each peptide concentration treatment and vehicle control.

Row | Compound | Presence or absence of fungal growth at 72 hrs (C. neoformans; cell count 10^3, treatment 16 μM) | Presence or absence of fungal growth at 72 hrs (C. neoformans; cell count 10^5, treatment 16 μM) | MIC against C. neoformans (C. neoformans (KN99α)) [µM]
1 | OC(Cn1cncn1)(Cn1cncn1)c1ccc(F)cc1F [Fluconazole] | – | – | 
2 | AGWERIAKELKKYIKKGKKVIRAAW [Peptide 32] |  |  | 2
